Data from ChEMBL document CHEMBL1201862, “PubChem BioAssay data set” (2004).
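Protocol summary: plate cells (96-well), add compound at 5 concentrations, incubate 48 h, interpolate endpoints linearly. GI50: concentration for 50% inhibition of growth.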 Calls of active or inactive are those of the source. No stated cut-off is given here; in the data, active = GI50 up to about 1.1 µM and inactive = higher.

How the values were obtained:
Experiment in all cases: inhibition of tumour cell growth, NCI panel, 48 h
[1] = system: TK-10
[2] = system: U-251
[3] = system: DU-145
[4] = system: HCT-15
[5] = system: OVCAR-8
[6] = system: 786-0
[7] = system: HL-60
[8] = system: SF-295
[9] = system: HOP-92
[10] = system: SN12C
[11] = system: HCT-116
[12] = system: ACHN
[13] = system: NCI/ADR-RES
[14] = system: IGROV-1
[15] = system: SW-620
[16] = system: SF-268
[17] = system: NCI-H460
[18] = system: RXF 393

Structure (SMILES) | GI50 [1] | GI50 [2] | GI50 [3] | GI50 [4] | GI50 [5] | GI50 [6] | GI50 [7] | GI50 [8] | GI50 [9] | GI50 [10] | GI50 [11] | GI50 [12] | GI50 [13] | GI50 [14] | GI50 [15] | GI50 [16] | GI50 [17] | GI50 [18]
CCC1C(C#N)=C(N)OC2=C1C(=O)CC(C)(C)C2 (stereo not drawn) | > 100 µM (inactive) | > 100 µM (inactive) | > 100 µM (inactive) | > 100 µM | > 100 µM (inactive) | > 100 µM (inactive) | > 100 µM (inactive) | > 100 µM (inactive) | > 100 µM (inactive) | > 100 µM (inactive) | > 100 µM (inactive) | > 100 µM (inactive) | > 100 µM (inactive) | > 100 µM (inactive) | > 100 µM (inactive) | > 100 µM (inactive) | > 100 µM (inactive) | 
CC(=O)Nc1ccc2c(C)c3c4ccccc4n(C)c3nc2n1 | 32.9 µM (inactive) |  | 21 µM (inactive) | 11.4 µM | 17.9 µM (inactive) | 8.17 µM (inactive) | 12.9 µM (inactive) | 19.9 µM (inactive) |  | 16.4 µM (inactive) | 7.1 µM (inactive) | 8.55 µM (inactive) | 22.3 µM (inactive) | 28.1 µM (inactive) | 13.2 µM (inactive) | 17.8 µM (inactive) | 2.92 µM (inactive) | 16.1 µM (inactive)
Cc1cc(Cl)cc2c1NC(=O)/C2=N\Nc1ccccc1[N+](=O)[O-] | > 100 µM (inactive) | > 100 µM (inactive) | 78.2 µM (inactive) | > 100 µM |  | 54.6 µM (inactive) | > 100 µM (inactive) | 64.7 µM (inactive) | 27 µM (inactive) | > 100 µM (inactive) | > 100 µM (inactive) | > 100 µM (inactive) |  | 19.1 µM (inactive) | > 100 µM (inactive) | > 100 µM (inactive) | > 100 µM (inactive) | > 100 µM (inactive)
Cn1c(CO)ccc1-c1ccc(-c2ccc[se]2)[se]1 | < 0.01 µM (active) |  | 17.7 µM (inactive) | 35.9 µM | 23 µM (inactive) | 29.1 µM (inactive) | 21.8 µM (inactive) | 34.6 µM (inactive) |  | > 52.4 µM (inactive) |  | 72.1 µM (inactive) | 32.7 µM (inactive) | 0.0384 µM (active) | 0.0959 µM (active) | 56.9 µM (inactive) | 14.2 µM (inactive) | 3.07 µM (inactive)
O=C(c1ccccc1)N1N=C(C(F)(F)F)CC1(O)C(F)(F)F (stereo not drawn) | > 100 µM (inactive) | > 100 µM (inactive) | > 100 µM (inactive) | > 100 µM | > 100 µM (inactive) | > 100 µM (inactive) | > 100 µM (inactive) | > 100 µM (inactive) |  | > 100 µM (inactive) | > 100 µM (inactive) | > 100 µM (inactive) | > 100 µM (inactive) |  | > 100 µM (inactive) | > 100 µM (inactive) | > 100 µM (inactive) | 
O=c1cn[nH]c(=S)n1/N=C/c1c[nH]c2ccccc12 |  | > 100 µM (inactive) | > 100 µM (inactive) | 31.4 µM | 32.8 µM (inactive) | > 100 µM (inactive) | 14.5 µM (inactive) | > 100 µM (inactive) |  |  | > 100 µM (inactive) | > 100 µM (inactive) | > 100 µM (inactive) | 0.564 µM (active) | 45.3 µM (inactive) | > 100 µM (inactive) | > 100 µM (inactive) | 
Sc1nnc(CCCCCCCCc2nnc(S)o2)o1 | > 100 µM (inactive) | > 100 µM (inactive) | > 100 µM (inactive) | > 100 µM | > 100 µM (inactive) | > 100 µM (inactive) | > 100 µM (inactive) | > 100 µM (inactive) |  | > 100 µM (inactive) | > 100 µM (inactive) | > 100 µM (inactive) | > 100 µM (inactive) | > 100 µM (inactive) | > 100 µM (inactive) | > 100 µM (inactive) | > 100 µM (inactive) | > 100 µM (inactive)
O=C1CC(c2ccco2)C2(C(=O)NC(=O)NC2=O)C(c2ccco2)C1 (stereo not drawn) | > 75 µM (inactive) | > 75 µM (inactive) | > 75 µM (inactive) | > 75 µM | > 75 µM (inactive) | > 75 µM (inactive) | > 75 µM (inactive) | > 75 µM (inactive) |  | > 75 µM (inactive) | > 75 µM (inactive) | > 75 µM (inactive) | > 75 µM (inactive) | > 75 µM (inactive) | > 75 µM (inactive) | > 75 µM (inactive) | > 75 µM (inactive) | > 75 µM (inactive)
COc1cc(Cn2c3c(c4cc(O)ccc42)Cc2ccccc2C3=O)cc(OC)c1 | > 100 µM (inactive) | 57.3 µM (inactive) | 58.1 µM (inactive) | 33.9 µM | 59.6 µM (inactive) | 58.3 µM (inactive) | > 100 µM (inactive) | 25.8 µM (inactive) |  | 24.7 µM (inactive) | 34.4 µM (inactive) |  | 21.3 µM (inactive) | 44.8 µM (inactive) | 54.5 µM (inactive) | > 100 µM (inactive) | 62.1 µM (inactive) | > 100 µM (inactive)
